Like-named read-outs stand apart in the source and are kept apart here.
Columns and labels:
[1] = target: T1, human cloned 5-HT6 receptors (Homo sapiens, UniProt P50406); experiment: 5-HT6 binding affinity, [3H]-LSD displacement on membranes of Hela cells expressing the cloned receptor; settings: for inhibition at 1 µM: read-out: % Inhibition at 1 μM
T1 construct: expressed in transfected cells; host or cells: Hela cells (membrane preparation)

[2] = [3H]-LSD 3.0 nM, Hela cell membranes, 120 min at room temperature, read-out: 5-HT6 Binding Ki

T1 sequence (P50406 whole entry): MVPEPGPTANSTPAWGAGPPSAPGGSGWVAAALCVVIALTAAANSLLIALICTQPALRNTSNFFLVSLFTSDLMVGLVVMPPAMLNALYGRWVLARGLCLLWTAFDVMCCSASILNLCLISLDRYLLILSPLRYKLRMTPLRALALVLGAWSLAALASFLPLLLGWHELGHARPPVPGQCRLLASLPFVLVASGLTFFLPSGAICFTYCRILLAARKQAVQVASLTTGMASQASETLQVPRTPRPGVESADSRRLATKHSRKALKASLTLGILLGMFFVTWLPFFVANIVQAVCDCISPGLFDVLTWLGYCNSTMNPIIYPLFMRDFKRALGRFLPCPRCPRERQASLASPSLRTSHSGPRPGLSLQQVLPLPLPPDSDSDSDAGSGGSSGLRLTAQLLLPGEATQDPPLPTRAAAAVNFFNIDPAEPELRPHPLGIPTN

`CN(C)CCn1cc(S(=O)(=O)c2ccccc2)c2ccccc21` [Example 3] showed a Ki [1] of 0.02 µM.
With `NCCCn1cc(S(=O)(=O)c2ccccc2)c2ccccc21` [Example 5, 3-[3-(phenylsulfonyl)-1H-indol-1-yl]propan-1-amine] the Ki [1, 2] was 0.092 µM.
With `CN(C)CCCCn1cc(S(=O)(=O)c2ccccc2)c2ccccc21` [Example 7] the melting point was 184 to 187 °C and the Ki [1, 2] was 0.16 µM.
For `CN(C)CCn1cc(S(=O)(=O)c2ccccc2)c2cc(C#N)ccc21` [Example 8, 1-[2-(dimethylamino)ethyl]-3-(phenylsulfonyl)-1H-indole-5-carbonitrile], the melting point was 280 °C (dec.) and the Ki [1, 2] was 0.045 µM.
For `CN(C)CCn1cc(S(=O)(=O)c2ccccc2)c2c(F)cccc21` [Example 9, N,N-dimethyl-N-{2-[4-fluoro-3-(phenylsulfonyl)-1H-indol-1-yl]ethyl}amine], the melting point was 201 to 203 °C and the Ki [1] was 0.098 µM.
`CN(C)CCn1cc(S(=O)(=O)c2ccccc2)c2cccc(Cl)c21` [Example 10, N,N-dimethyl-N-{2-[7-chloro-3-(phenylsulfonyl)-1H-indol-1-yl]-ethyl}amine] gave a melting point of 240 to 242 °C and a Ki [1, 2] of 0.098 µM.
In the case of `CN(C)CCn1cc(S(=O)(=O)c2ccccc2)c2c(Cl)cccc21` [Example 11, N,N-dimethyl-N-{2-[4-chloro-3-(phenylsulfonyl)-1H-indol-1-yl]-ethyl}amine], the melting point is reported as 209 to 211 °C and the Ki [1, 2] is reported as 0.134 µM.
Work on `Cc1cccc2c1c(S(=O)(=O)c1ccccc1)cn2CCN(C)C` [Example 12, N,N-dimethyl-N-{2-[4-methyl-3-(phenylsulfonyl)-1H-indol-1-yl]ethyl}amine] yielded a melting point of 220 to 221 °C and a Ki [1, 2] of 0.183 µM.
`CCc1cccc2c(S(=O)(=O)c3ccccc3)cn(CCN(C)C)c12` [Example 13, N,N-dimethyl-N-{2-[7-ethyl-3-(phenylsulfonyl)-1H-indol-1-yl]ethyl}amine] showed a melting point of 213 to 216 °C and a Ki [1] of 0.065 µM.
`CN(C)CCn1cc(S(=O)(=O)c2ccccc2)c2cccc(C#N)c21` [Example 14, 1-[2-(dimethylamino)ethyl]-3-(phenylsulfonyl)-1H-indole-7-carbonitrile] gave a melting point of 134 to 136 °C, a Ki [1, 2] of 0.755 µM and an inhibition at 1 µM [1] of 35%.
`CN(C)CCCn1cc(S(=O)(=O)c2ccccc2)c2ccccc21` [Example 15, N,N-dimethyl-3-[3-(phenylsulfonyl)-1H-indol-1-yl]propan-1-amine] gave a melting point of 207 to 209 °C and a Ki [1, 2] of 0.169 µM.
For `COc1ccc2c(c1)c(S(=O)(=O)c1ccccc1)cn2CCN(C)C` [Example 20], the melting point was 214 to 216 °C, the Ki [1] was 0.023 µM and the inhibition at 1 µM [1] was 88%.
`COc1ccc2c(c1)c(S(=O)(=O)c1ccccc1)cn2CCN` [Example 21, 2-[5-methoxy-3-(phenylsulfonyl)-1H-indol-1-yl]ethylamine] showed a melting point of 198 to 201 °C and an inhibition at 1 µM ([1]; 1 μM test compound, displacement of [3H]-LSD) of 86%.
Compound `COc1cccc2c(S(=O)(=O)c3ccccc3)cn(CCN(C)C)c12` [Example 23] has a melting point of 236 to 238 °C and a Ki [1] of 0.025 µM.
With `Cc1c(S(=O)(=O)c2ccccc2)c2ccccc2n1CCN(C)C` [Example 24, N,N-dimethyl-N-{2-[2-methyl-3-(phenylsulfonyl)-1H-indol-1-yl]ethyl}amine] the melting point was 258 to 260 °C and the Ki [1] was 0.018 µM.
`CN(C)CCn1cc(S(=O)(=O)c2cccc(F)c2)c2ccccc21` [Example 25] gave a melting point of 210 to 211 °C and a Ki [1, 2] of 0.013 µM.
In the case of `CN(C)CCn1cc(S(=O)(=O)c2cccc3ccccc23)c2ccccc21` [Example 26], the melting point is reported as 239 to 241 °C and the Ki [1, 2] is reported as 0.004 µM.
With `CN(C)CCn1cc(S(=O)(=O)c2ccccc2)c2ccc(-c3ccccc3)cc21` [Example 27] the Ki [1, 2] was 0.023 µM.
Compound `CN(C)CCn1cc(S(=O)(=O)Cc2ccccc2)c2ccccc21` [Example 31] has a melting point of 219 to 220 °C and a Ki [1, 2] of 1.01 µM.
With `O=S(=O)(Cc1ccccc1)c1cn(CCN2CCCCC2)c2ccccc12` [Example 32] the melting point was 223 to 225 °C and the Ki [1, 2] was 0.644 µM.
Work on `CN(C)CCn1nc(S(=O)(=O)c2ccccc2)c2ccccc21` [Example 35] yielded a Ki [1, 2] of 0.074 µM.
`NCCn1nc(S(=O)(=O)c2ccccc2)c2ccccc21` [Example 36, 2-[3-(phenylsulfonyl)-1H-indazol-1-yl]ethylamine] gave a melting point of 208 to 209 °C and a Ki [1, 2] of 0.044 µM.
`CN(C)CCn1nc(S(=O)(=O)c2cccc(F)c2)c2ccccc21` [Example 37] gave a melting point of 192 to 194 °C and a Ki [1, 2] of 0.055 µM.
With `COc1ccc2c(c1)c(S(=O)(=O)c1ccccc1)cn2CCNCc1ccccc1` [Example 39] the Ki [1, 2] was 0.059 µM.
In the case of `NCCn1cc(S(=O)(=O)c2ccccc2)c2ccccc21` [Example 40, 2-[3-(phenylsulfonyl)-1H-indol-1-yl]ethylamine], the melting point is reported as 220 to 221 °C and the Ki [1, 2] is reported as 0.025 µM.
Work on `NCCn1cc(S(=O)(=O)c2ccccc2)c2ccc(Cl)cc21` [Example 44, 2-[6-chloro-3-(phenylsulfonyl)-1H-indol-1-yl]ethylamine] yielded a melting point of 200 to 206 °C and a Ki [1, 2] of 0.141 µM.
Compound `Cc1ccc(S(=O)(=O)c2cn(CCN)c3ccccc23)cc1` [Example 45] has a melting point of 178 to 183 °C and a Ki [1, 2] of 0.025 µM.
Compound `Cn1ccnc1S(=O)(=O)c1cn(CCN)c2ccccc12` [Example 46] has a melting point of 158 to 160 °C and a Ki [1, 2] of 0.573 µM.
Work on `CN(C)CCn1cc(S(=O)(=O)c2ccccc2)c2cc(F)ccc21` [Example 47] yielded a melting point of 103 to 104 °C and a Ki [1] of 0.044 µM.
For `COc1ccc2c(S(=O)(=O)c3ccccc3)cn(CCN(C)C)c2c1` [Example 48], the melting point was 121 to 122 °C and the Ki [1] was 0.023 µM.
For `Cc1ccc2c(S(=O)(=O)c3ccccc3)cn(CCN(C)C)c2c1` [Example 49], the melting point was 131 to 132 °C and the Ki [1, 2] was 0.051 µM.
`CN(C)CCn1cc(S(=O)(=O)c2ccccc2)c2ccc(F)cc21` [Example 50] showed a melting point of 100 to 102 °C and a Ki [1] of 0.046 µM.
Compound `CN(C)CCn1cc(S(=O)(=O)c2ccccc2)c2ccc(Cl)cc21` [Example 51] has a melting point of 104 to 106 °C and a Ki [1] of 0.042 µM.
In the case of `Cc1ccc(S(=O)(=O)c2cn(CCN(C)C)c3ccccc23)cc1` [Example 52], the melting point is reported as greater than 250 °C and the Ki [1] is reported as 0.057 µM.
Compound `COc1cccc2c1c(S(=O)(=O)c1ccccc1)cn2CCN(C)C` [Example 53] has a melting point of 238 to 240 °C and a Ki [1, 2] of 0.152 µM.
For `CN(C)CCn1cc(S(=O)(=O)c2ccccc2OC(F)(F)F)c2ccccc21` [Example 57], the Ki [1, 2] was 0.016 µM.
In the case of `CN(C)CCn1cc(S(=O)(=O)c2c(Cl)nc3sccn23)c2ccccc21` [Example 58], the melting point is reported as 138 to 140 °C and the Ki [1, 2] is reported as 0.006 µM.

— patent US6727246B2, “1-(aminoalkyl)-3-sulfonylindole-and-indazole derivatives as 5-hydroxytryptamine-6 ligands” (Wyeth, priority 2002, dated 2004)
